According to patent US9828344B2, “Inhibitors of the notch signaling pathway and secretion for use in medicine” (Leibniz-Institut für Altersforschung Fritz-Lipmann-Institut …, priority 2012, dated 2017):

What was measured:
[1] = test system: Klotho; assay: Klotho trafficking/processing in HEK293 cells stably expressing Klotho; type: cell-based; details: 10 μM, 16 h
Protocol: FIG. 3: Effect of compounds on NotchΔE-EGFP, APP and Klotho trafficking and processing. a) HEK293 stably expressing APPswe or Klotho (KI) were incubated with DAPT or compounds (10 μM) for 16 h. Media were collected, cells lysed and both assayed by Western blotting using indicated antibodies. m, mature; im, immature; s, shedded ectodomain; CTF, C-terminal fragment. b) Membranes from HeLa-NotchΔE-EGFP and APPswe cells were isolated and subjected to a γ-secretase in vitro assay in the presence of DAPT or compounds as indicated. NICD and AICD were detected by Western Blotting using antibodies against the C-terminus of APP (top) or antibodies specific for NICD (bottom). c) Quantitation from 5 independent experiments.
To test whether FLI-06 affected other membrane proteins, Klotho, a type I protein processed like APP and Notch^20, was analyzed. […] To analyze γ-secretase activity, in vitro assays using isolated membranes were performed (FIG. 3b, c). Production of NICD-EGFP and AICD (APP intracellular domain) were assayed. Both were produced in vitro at 37° C. but not at 4° C., and their production was inhibited by DAPT.
APP, APPs, APPCTF and Aβ detection was as described before^54 using antibodies 22C11 for APP and APPs, 6687 for APPCTF and 3552 and 2D8 for Aβ. Klotho was detected as described in Bloch et al.^20. Chemoluminescence was quantified on a LAS-4000 (Fuji) with MultiGauge software.

[2] = test system: Golgi apparatus; assay: Immunofluorescence of Golgi and early secretory pathway markers in HeLa cells; type: cell-based
[3] = test system: microtubuli or actin; assay: Microtubule and actin integrity in HeLa cells; type: cell-based; details: 4 h
[4] = test system: endocytosis; assay: Transferrin uptake assay; type: cell-based
Protocol: FIG. 13: FLI-06 causes dispersal of early Golgi and TGN, but no tubulation of endosomes. Hela cells were incubated with DMSO or 10 iM FLI-06 or 1 ig/ml BFA for 18 h, fixed, stained with antibodies as indicated and imaged by fluorescence microscopy. Endosomes were visualized by adding Alexa555-labelled transferrin on ice and chasing for 15 min at 37° C. in the presence of indicated compounds. Arrows indicated tubulating endosomes, scalebar 10 im.
For the transferrin uptake assay cells were starved in serum free medium for 1 h at 37° C. Cells were then transferred on ice and medium was exchanged to serum free medium supplemented with 25 μg/ml AlexaFluor555-Transferrin conjugate (Molecular Probes) and test compounds. After 15 min on ice cells were incubated with pre-warmed serum-supplemented medium containing test compounds and incubated at 37° C.

[5] = target: T1, GBF1 (Homo sapiens, UniProt Q92538); assay: GBF1-GFP distribution in transfected HeLa cells; type: cell-based; details: FLI-06 10 μM, BFA 10 μg/ml, GCA 10 μM, 10 h
T1 construct: expressed in transfected cells; host or cells: HeLa (transient)

[6] = test system: COPII vesicles; assay: In vitro COPII budding assay with permeabilized cells; type: biochemical; details: for budding of COPII vesicles after pretreatment of cells: cells pretreated with FLI-06 for 4 hours
[7] = test system: ER; assay: ER tubule-to-sheet live-cell imaging in COS cells (prlss-KDEL-mRFP); type: cell-based
Protocol: FIG. 7: FLI-06 induces ER sheet formation. A) COS cells transfected with prlss-KDEL-mRFP were incubated with 10 μM FLI-06 for indicated times and imaged by live-cell microscopy. The inserts are magnifications of the boxed areas. B) Images from cells treated as in A) were scored for the percentage of cells that lost most of their ER-tubules. For each time point 40-60 cells were counted. Data represent mean percentages, error bars SEM, n=3 independent experiments.
FIG. 16: Only ER exit inhibitors convert ER tubules to sheets. COS cells plated on LabTek chambered coverslips were transiently transfected with the ER-marker prlss-KDEL-mRFP, incubated the next day for 2 h with 10 iM of indicated compounds and imaged by live-cell microscopy. […] FLI-06+CHX, cells were additionally incubated in 40 iM cycloheximide. Nife, nifedipine; nimo, nimodipine. Numbers refer to numbering in FIG. 5a.
We noted a morphological change of the ER upon FLI-06 incubation that was difficult to capture in fixed cells. Live-cell imaging was therefore performed in COS cells transfected with the ER marker prlss-KDEL-mRFP (supp. Ref 3) and FLI-06 was added for 120 min (FIG. 7a). After 120 min almost all cells had no detectable ER-tubules anymore and instead were filled with large sheet-like structures. […] To test whether the morphological change is related to the inhibition of ER exit, next our set of FLI-06 derivatives was tested. […] Rather, the ER-sheets are indicative for structural changes, maybe initiated within ERES, that inhibit ER exit.

[8] = test system: SEAP; assay: Secreted alkaline phosphatase (SEAP) assay in HeLa cells; type: cell-based; details: medium measured via photometry
Protocol: (§1) FIG. 18: FLI-06 inhibits secretion of secreted alkaline phosphates; FLI-06 kills cancerous, Notch dependent T-cells. a) The secreted alkaline phosphatase (SEAP) assay was carried out. Medium was collected and SEAP secretion was measured via photometry. […] The cells were grown in suspension with the indicated amounts of FLI-06 or DMSO control and growth was determined via FACS analysis.
In order to confirm the inhibitory effect of FLI-06 on secretion we transfected HeLa cells with a plasmid encoding a secreted alkaline phosphatase (SEAP).

[9] = test system: DND-41 cells; assay: Growth of DND-41 cells (FACS); type: cell-based
Protocol: as §1
To test whether FLI-06 would ultimately be useful to treat cancerous diseases we incubated DND-41 cells having a Notch heterodimerization domain that leads to hyperactive Notch signaling (Weng et al, Science, 2004) with FLI-06.

[10] = test system: BIP and ATF6; details: human, 24 h

T1 sequence (Q92538 whole entry, species assumed): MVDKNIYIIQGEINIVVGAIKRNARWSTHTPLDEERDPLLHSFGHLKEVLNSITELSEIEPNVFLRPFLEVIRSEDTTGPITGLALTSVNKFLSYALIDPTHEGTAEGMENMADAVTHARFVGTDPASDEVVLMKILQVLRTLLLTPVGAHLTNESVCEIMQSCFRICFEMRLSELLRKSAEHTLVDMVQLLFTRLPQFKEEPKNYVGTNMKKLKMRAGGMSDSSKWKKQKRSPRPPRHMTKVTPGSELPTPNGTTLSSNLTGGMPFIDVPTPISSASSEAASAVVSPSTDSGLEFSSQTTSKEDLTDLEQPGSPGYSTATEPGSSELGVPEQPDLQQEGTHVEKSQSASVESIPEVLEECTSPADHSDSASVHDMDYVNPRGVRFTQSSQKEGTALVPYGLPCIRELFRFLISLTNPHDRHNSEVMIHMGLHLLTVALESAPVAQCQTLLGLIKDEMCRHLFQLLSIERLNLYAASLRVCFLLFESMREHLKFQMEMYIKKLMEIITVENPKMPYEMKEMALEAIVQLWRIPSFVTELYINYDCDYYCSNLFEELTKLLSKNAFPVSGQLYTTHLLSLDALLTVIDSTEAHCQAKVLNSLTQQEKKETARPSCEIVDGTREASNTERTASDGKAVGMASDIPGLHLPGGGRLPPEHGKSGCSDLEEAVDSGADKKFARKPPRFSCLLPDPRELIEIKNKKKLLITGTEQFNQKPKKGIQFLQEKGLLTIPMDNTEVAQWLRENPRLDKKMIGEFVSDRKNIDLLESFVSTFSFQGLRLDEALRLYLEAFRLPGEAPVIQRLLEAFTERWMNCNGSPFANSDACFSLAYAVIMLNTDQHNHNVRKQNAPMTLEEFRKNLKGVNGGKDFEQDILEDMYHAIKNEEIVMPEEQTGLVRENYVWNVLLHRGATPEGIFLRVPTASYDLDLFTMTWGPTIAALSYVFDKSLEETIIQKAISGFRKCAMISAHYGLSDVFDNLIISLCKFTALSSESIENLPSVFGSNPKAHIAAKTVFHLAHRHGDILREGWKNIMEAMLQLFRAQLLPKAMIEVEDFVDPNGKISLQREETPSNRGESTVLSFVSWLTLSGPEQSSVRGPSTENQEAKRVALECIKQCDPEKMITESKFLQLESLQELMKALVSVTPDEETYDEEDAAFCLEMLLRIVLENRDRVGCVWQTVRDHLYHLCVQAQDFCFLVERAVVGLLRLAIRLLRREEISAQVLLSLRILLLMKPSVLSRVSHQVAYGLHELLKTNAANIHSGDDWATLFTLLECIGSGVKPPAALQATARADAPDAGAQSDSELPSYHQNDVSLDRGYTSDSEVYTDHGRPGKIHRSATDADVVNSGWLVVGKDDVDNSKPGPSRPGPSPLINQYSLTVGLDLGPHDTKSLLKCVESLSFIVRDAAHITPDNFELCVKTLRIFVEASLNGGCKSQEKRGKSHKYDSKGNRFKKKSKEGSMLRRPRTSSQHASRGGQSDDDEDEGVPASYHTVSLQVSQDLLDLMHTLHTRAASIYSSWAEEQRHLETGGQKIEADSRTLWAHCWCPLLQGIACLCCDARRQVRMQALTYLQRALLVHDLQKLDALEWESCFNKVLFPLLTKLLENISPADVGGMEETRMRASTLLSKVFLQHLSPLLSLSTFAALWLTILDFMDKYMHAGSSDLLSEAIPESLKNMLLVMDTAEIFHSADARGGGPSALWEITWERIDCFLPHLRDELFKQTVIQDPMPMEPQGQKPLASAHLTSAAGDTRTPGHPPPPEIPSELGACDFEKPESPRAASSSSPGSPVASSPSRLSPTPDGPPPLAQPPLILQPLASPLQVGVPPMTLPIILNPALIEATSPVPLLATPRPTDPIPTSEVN

Question: How did the “glycosylation of Klotho” value [1] turn out when CC1=C(C(=O)OC2CCCCC2)C(c2ccc([N+](=O)[O-])cc2)C2=C(CC(C)(C)CC2=O)N1 (centres unmarked) [FLI-06, Cyclohexyl 4-(4′-nitrophenyl)-2,7,7-trimethyl-5-oxo-1,4,5,6,7,8-hexahydroquinoline-3-carboxylate] was run?
Answer: Its value is “aberrant glycosylation”.

Question: And the “mature, complex-glycosylated post-Golgi form of Klotho” value [1]?
Answer: Its value is “strongly reduced”.

Question: What about the “shedded Klothos in the medium” value [1] of the same compound?
Answer: Its value is “strong reduction of Klothos in the medium”.

Question: And the “Golgi integrity (giantin)” value ([2]; 10 μM, 18 h)?
Answer: Its value is “complete disruption of the Golgi”.

Question: What about the “time to loss of Golgi-like juxtanuclear βCOP staining” value ([2]; 1 ig/ml BFA or 10 iM FLI-06) of the same compound?
Answer: Its value is 30 to 40 min.

Question: What about the “distribution of GM130 and TGN46” value ([2]; 10 iM FLI-06 or 1 ig/ml BFA, 18 h) of the same compound?
Answer: The value was “dispersal of the cis-Golgi marker GM130 and of the trans-Golgi network (TGN) marker TGN46”.

Question: And the “hyperglycosylation of VSVG-EGFP” value ([2]; 4 h at 40° C. with cycloheximide)?
Answer: The value was “did not cause a hyperglycosylation”.

Question: And the tubulation of endosomes ([2]; Alexa555-transferrin labelled endosomes)?
Answer: Its tubulation of endosomes is “did not cause tubulation of endosomes”.

Question: What about the “fusion of ER and Golgi” value ([2]; prlss-KDEL-mRFP and B4GALT-EGFP markers) of the same compound?
Answer: The value was “did not lead to fusion of ER and Golgi”.

Question: What about the microtubule network ([3]; 1.5 ig/ml nocodazole or 10 iM FLI-06) of the same compound?
Answer: Its microtubule network is “does not act on the cytoskeleton”.

Question: What about the “actin polymerization and distribution” value ([3]; 2 iM cytochalasin D or 10 iM FLI-06) of the same compound?
Answer: Its value is “unaffected”.

Question: And the endocytosis of transferrin [4]?
Answer: The endocytosis of transferrin was “did not affect endocytosis”.

Question: And the “distribution of GBF1-GFP” value [5]?
Answer: Its value is “displayed the distribution of control cells”.

Question: What about the “budding of COPII vesicles after pretreatment of cells” value ([6]; 100 μM FLI-06 in reaction) of the same compound?
Answer: The value was “strongly”.

Question: What about the “budding of COPII vesicles after pretreatment of cells” value ([6]; no FLI-06 in reaction) of the same compound?
Answer: Its value is “slightly inhibited”.

Question: And the “COPII budding reaction, compound added directly to the assay” value ([6]; no FLI-06 pretreatment of cells)?
Answer: The value was “did not inhibit the COPII budding reaction”.

Question: And the “start of ER sheet-formation” value ([7]; 10 μM FLI-06)?
Answer: The value was 5 to 10 min.

Question: And the “t1/2 of ER sheet-formation” value ([7]; 10 μM FLI-06)?
Answer: The value was “about 14 min”.

Question: What about the ER tubule-to-sheets phenotype ([7]; 10 iM, 2 h) of the same compound?
Answer: The ER tubule-to-sheets phenotype was “elicited the tubule-to-sheets phenotype”.

Question: And the “secretion of SEAP” value [8]?
Answer: Its value is “inhibition of secretion of SEAP”.

Question: What about the “effect on DND-41 cells” value ([9]; 1 μM) of the same compound?
Answer: Its value is “inhibited proliferation”.

Question: And the “effect on DND-41 cells” value ([9]; 10 μM)?
Answer: The value was “total cell death after 4 days”.

Question: And the “ER-stress (BIP up-regulation, ATF6 luciferase)” value [10]?
Answer: The value was “only very mild ER-stress after 24 h”.
